This experiment addresses T1, human FSH receptor (Homo sapiens, UniProt P23945).
T1 construct: expressed in transfected cells; host or cells: Chinese Hamster Ovary (CHO) cells
T1 sequence (P23945 18-695): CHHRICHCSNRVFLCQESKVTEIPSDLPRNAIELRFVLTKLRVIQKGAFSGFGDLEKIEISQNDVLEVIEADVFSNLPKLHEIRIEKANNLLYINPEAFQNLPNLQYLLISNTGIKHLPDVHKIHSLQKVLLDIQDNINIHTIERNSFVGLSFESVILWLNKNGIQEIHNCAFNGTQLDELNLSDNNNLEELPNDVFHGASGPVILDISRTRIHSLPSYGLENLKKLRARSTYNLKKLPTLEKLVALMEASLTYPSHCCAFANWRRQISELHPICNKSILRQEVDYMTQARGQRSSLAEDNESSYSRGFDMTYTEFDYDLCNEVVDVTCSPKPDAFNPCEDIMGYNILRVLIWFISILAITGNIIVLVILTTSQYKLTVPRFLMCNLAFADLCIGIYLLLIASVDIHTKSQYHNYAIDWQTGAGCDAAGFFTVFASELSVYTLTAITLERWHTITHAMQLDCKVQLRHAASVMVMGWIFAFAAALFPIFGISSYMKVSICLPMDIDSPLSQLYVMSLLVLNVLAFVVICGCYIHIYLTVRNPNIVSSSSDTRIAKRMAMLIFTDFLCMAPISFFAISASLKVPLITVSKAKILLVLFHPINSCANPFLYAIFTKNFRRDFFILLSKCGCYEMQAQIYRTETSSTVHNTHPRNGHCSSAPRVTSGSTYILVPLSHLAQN
Nature of the experiment: CHO-FSH in vitro bio activity (CRE-luciferase reporter). The class given is cell-based. The settings on record: CHO cells stably transfected with human FSH receptor and CRE/luciferase reporter; half-maximal (50%) stimulation. The procedure:
FSH activity of compounds were tested in Chinese Hamster Ovary (CHO) cells stably transfected with the human FSH receptor and cotransfected with a cAMP responsive element (CRE)/promotor directing the expression of a firefly luciferase reporter gene. Binding of ligand to the Gs-coupled FSH receptor will result in an increase of cAMP, which in turn will induce an increased transactivation of the luciferase reporter construct. The luciferase signal was quantified using a luminescence counter. For test compounds, EC50 values (concentration of test compound causing half-maximal (50%) stimulation) were calculated. For that purpose the software program GraphPad PRISM, version 3.0 (GraphPad software Inc., San Diego) was used.

Take `CC(=O)N1c2ccc(NC(=O)CN3CCN(c4ccccc4)CC3)cc2C(C)(c2ccccc2)CC1(C)C` (stereo not shown) [Example 30, 1-Acetyl-6-([4-{1-phenyl}-piperazinyl]methylcarbonyl)amino-4-phenyl-1,2,3,4-tetrahydro-2,2,4-trimethylquinoline]: the EC50 (commonly the concentration that produces a half-maximal response) was below 100 nM. Consider `CC(=O)N1c2ccc(NC(=O)CCC34CC5CC(CC(C5)C3)C4)cc2C(C)(c2ccccc2)CC1(C)C` (stereo not shown) [Example 24, 1-Acetyl-6-(3-[adamantan-1-yl]propionyl)amino-4-phenyl-1,2,3,4-tetrahydro-2,2,4-trimethylquinoline], for which the half-maximal effective concentration (EC50) is below 100 nM. In turn, `COc1ccc(-c2ccccc2)c(C(=O)Nc2ccc3c(c2)C(C)(c2ccccc2)CC(C)(C)N3C(C)=O)c1` (stereo not shown) [Example 15, 1-Acetyl-4-phenyl-6-(2-phenyl-5-methoxybenzoyl)amino-1,2,3,4-tetrahydro-2,2,4-trimethylquinoline] registered an EC50 below 100 nM.

`CC(=O)N1c2ccc(NC(=O)c3cc(Br)cc(Br)c3)cc2C(C)(c2ccccc2)CC1(C)C` (stereo not shown) [Example 50, 1-Acetyl-6-(3,5-dibromobenzoyl)amino-4-phenyl-1,2,3,4-tetrahydro-2,2,4-trimethylquinoline] returned an EC50 below 100 nM. With `COc1cc(NC(=O)c2ccc(-c3ccccc3)cc2)cc2c1N(C(C)=O)C(C)(C)CC2(C)c1ccccc1` (stereo not shown) [Example 46, 1-Acetyl-6-(4-phenylbenzoyl)amino-8-methoxy-4-phenyl-1,2,3,4-tetrahydro-2,2,4-trimethylquinoline], the EC50 is below 100 nM.

Consider `CC(=O)N1c2ccc(NC(=O)c3ccc(Cl)cc3)cc2C(C)(c2ccccc2)CC1(C)C` (stereo not shown) [Example 6, 1-Acetyl-6-(4-chlorobenzoyl)amino-4-phenyl-1,2,3,4-tetrahydro-2,2,4-trimethylquinoline], for which the EC50 was below 100 nM.

The compound `CC(=O)N1c2ccc(NC(=O)c3ccc(-c4ccccc4)cc3)cc2C(C)(c2ccccc2)CC1(C)C` (stereo not shown) [Example 12, 1-Acetyl-4-phenyl-6-(4-phenylbenzoyl)amino-1,2,3,4-tetrahydro-2,2,4-trimethylquinoline] displayed an EC50 below 100 nM. With `COc1ccc(COC(=O)c2ccc3c(c2)C(C)(c2ccccc2)CC(C)(C)N3C(C)=O)cc1` (stereo not shown) [Example 36, 1-Acetyl-6-(4-methoxybenzyloxy)carbonyl-4-phenyl-1,2,3,4-tetrahydro-2,2,4-trimethylquinoline] the figure was below 100 nM. In turn, `CC(=O)N1c2ccc(NC(=O)c3ccccc3OC(=O)c3cc(C)on3)cc2C(C)(c2ccccc2)CC1(C)C` (stereo not shown) [Example 61, 1-Acetyl-6-(2-[5-methylisoxazole-3-carbonyl]oxybenzoyl)amino-4-phenyl-1,2,3,4-tetrahydro-2,2,4-trimethylquinoline] registered a concentration giving a half-maximal response (EC50) below 100 nM. As for `COc1cc(C(=O)Nc2ccc3c(c2)C(C)(c2ccccc2)CC(C)(C)N3C(C)=O)cc(OC)c1OC` (stereo not shown) [Example 52, 1-Acetyl-6-(3,4,5-trimethoxybenzoyl)amino-4-phenyl-1,2,3,4-tetrahydro-2,2,4-trimethylquinoline], the EC50 is below 100 nM. With `CC(=O)N1c2ccc(NC(=O)c3cccc(C)c3-c3ccccc3)cc2C(C)(c2ccccc2)CC1(C)C` (stereo not shown) [Example 16, 1-Acetyl-4-phenyl-6-(2-phenyl-3-methylbenzoyl)amino-1,2,3,4-tetrahydro-2,2,4-trimethylquinoline] the figure was below 100 nM; with `CC(=O)N1c2ccc(NC(=O)c3ccc(-c4ccc(Cl)cc4)cc3)cc2C(C)(c2ccccc2)CC1(C)C` (stereo not shown) [Example 13, 1-Acetyl-6-(4-[4-chlorophenyl]benzoyl)amino-4-phenyl-1,2,3,4-tetrahydro-2,2,4-trimethylquinoline], below 100 nM; with `CC(=O)N1c2ccc(NC(=O)CC(C)C)cc2C(C)(c2ccccc2)CC1(C)C` (stereo not shown) [Example 23, 1-Acetyl-6-(isovaleryl)amino-4-phenyl-1,2,3,4-tetrahydro-2,2,4-trimethylquinoline], below 100 nM.

Regarding `COc1ccc(Br)c(OC)c1C(=O)Nc1ccc2c(c1)C(C)(c1ccccc1)CC(C)(C)N2C(C)=O` (stereo not shown) [Example 11, 1-Acetyl-6-(3-bromo-2,6-dimethoxybenzoyl)amino-4-phenyl-1,2,3,4-tetrahydro-2,2,4-trimethylquinoline], the EC50 is below 100 nM.

Take `CC(=O)N1c2ccc(NC(=O)c3ccccc3)cc2C(C)(c2ccccc2)CC1(C)C` (stereo not shown) [Example 7, 1-Acetyl-6-benzoylamino-4-phenyl-1,2,3,4-tetrahydro-2,2,4-trimethylquinoline]: the EC50 was below 100 nM. The result for `CC(=O)N1c2ccc(NC(=O)c3ccccc3Nc3ccccc3)cc2C(C)(c2ccccc2)CC1(C)C` (stereo not shown) [Example 64, 1-Acetyl-6-(2-phenylaminobenzoyl)amino-4-phenyl-1,2,3,4-tetrahydro-2,2,4-trimethylquinoline] reads below 100 nM; that for `CC(=O)N1c2ccc(NC(=O)c3ccco3)cc2C(C)(c2ccccc2)CC1(C)C` (stereo not shown) [Example 22, 1-Acetyl-6-(2-furoyl)amino-4-phenyl-1,2,3,4-tetrahydro-2,2,4-trimethylquinoline], below 100 nM. With `CC(=O)N1c2ccc(NC(=O)OC(C)(C)C)cc2C(C)(c2ccccc2)CC1(C)C` (stereo not shown) [Example 1, 1-Acetyl-6-(tert-butoxycarbonyl)amino-4-phenyl-1,2,3,4-tetrahydro-2,2,4-trimethylquinoline] the figure was below 100 nM; with `CC(=O)N1c2ccc(NC(=O)c3ccccc3OS(C)(=O)=O)cc2C(C)(c2ccccc2)CC1(C)C` (stereo not shown) [Example 58, 1-Acetyl-6-(2-methylsulfonyloxybenzoyl)amino-4-phenyl-1,2,3,4-tetrahydro-2,2,4-trimethylquinoline], below 100 nM; with `CC(=O)N1c2ccc(NC(=O)c3ccc(C(F)(F)F)cc3)cc2C(C)(c2ccccc2)CC1(C)C` (stereo not shown) [Example 8, 1-Acetyl-4-phenyl-1,2,3,4-tetrahydro-6-(4-[trifluoromethyl]benzoyl)amino-2,2,4-trimethylquinoline], below 100 nM. As to `COc1c(Cl)cc(Cl)c(OC)c1C(=O)Nc1ccc2c(c1)C(C)(c1ccccc1)CC(C)(C)N2C(C)=O` (stereo not shown) [Example 53, 1-Acetyl-6-(3,5-dichloro-2,6-dimethoxybenzoyl)amino-4-phenyl-1,2,3,4-tetrahydro-2,2,4-trimethylquinoline], the EC50 is below 100 nM. The result for `CC(=O)N1c2ccc(OC(=O)c3ccc(-c4ccccc4)cc3)cc2C(C)(c2ccccc2)CC1(C)C` (stereo not shown) [Example 37, 1-Acetyl-6-(4-phenylbenzoyl)oxy-4-phenyl-1,2,3,4-tetrahydro-2,2,4-trimethylquinoline] reads below 100 nM.

In turn, `CC(=O)N1c2ccc(NC(=O)CCc3ccccc3)cc2C(C)(c2ccccc2)CC1(C)C` (stereo not shown) [Example 21, 1-Acetyl-4-phenyl-6-(3-phenylpropionyl)amino-1,2,3,4-tetrahydro-2,2,4-trimethylquinoline] showed a 50% effective concentration (EC50) below 100 nM.

With `CC(=O)N1c2cc(C)c(NC(=O)c3ccc(-c4ccccc4)cc3)cc2C(C)(c2ccccc2)CC1(C)C` (stereo not shown) [Example 45, 1-Acetyl-6-(4-phenylbenzoyl)amino-4-phenyl-1,2,3,4-tetrahydro-2,2,4,7-tetramethylquinoline], the EC50 is below 100 nM. With `CC(=O)N1c2ccc(NC(=O)c3ccccc3OC(=O)N3CCOCC3)cc2C(C)(c2ccccc2)CC1(C)C` (stereo not shown) [Example 63, 1-Acetyl-6-(2-[morpholino-4-carbonyl]oxybenzoyl)amino-4-phenyl-1,2,3,4-tetrahydro-2,2,4-trimethylquinoline] the figure was below 100 nM. The result for `CNc1ccc(Br)cc1C(=O)Nc1ccc2c(c1)C(C)(c1ccccc1)CC(C)(C)N2C(C)=O` (stereo not shown) [Example 51, 1-Acetyl-6-(5-bromo-2-methylaminobenzoyl)amino-4-phenyl-1,2,3,4-tetrahydro-2,2,4-trimethylquinoline] reads below 100 nM. The result for `CC(=O)N1c2ccc(NC(=O)c3ccc([N+](=O)[O-])cc3)cc2C(C)(c2ccccc2)CC1(C)C` (stereo not shown) [Example 9, 1-Acetyl-6-(4-nitrobenzoyl)amino-4-phenyl-1,2,3,4-tetrahydro-2,2,4-trimethylquinoline] reads below 100 nM. Compound `CCCc1ccc(C(=O)Nc2ccc3c(c2)C(C)(c2ccccc2)CC(C)(C)N3C(C)=O)cc1` (stereo not shown) [Example 10, 1-Acetyl-4-phenyl-6-(4-n-propylbenzoyl)amino-1,2,3,4-tetrahydro-2,2,4-trimethylquinoline] had an EC50 below 100 nM.

These data come from patent publication US8258293B2, “Tetrahydroquinoline derivatives” (MSD OSS B.V., priority 2001, dated 2012).
